Values of other authors in US20240368046A1, “UREA-BASED C[…] WITH AN INORGANIC ACID” (Y ara International ASA, priority 2021, published 2024).

urea sulphate
pKa: about 1.5
